# Source: patent US7425635B2, “Prodrugs and conjugates of thiol- and selenol-containing compounds and methods of use thereof” (University of Utah Research Foundation, priority 1997, dated 2008)
# Tests used:
# Ugt1a9 = experiment: Northern blot of liver Ugt1a9 mRNA after ip dosing; format: in vivo, mice; settings: 1.25 mg Se/kg, mean ± SEM
# Protocol: (§1) Linking efficacy to biochemical parameters and a mechanism was limited in the initial study by only two parameters, [Se] and GPx activity. The in-vivo effects of selenazolidine compounds were then evaluated using, in addition to GPx, glutathione S-transferases (GSTs), quinone oxidoreductases (NQORs), UDP-glucuronosyltransferases (UGTs), and microsomal epoxide hydrolase (mEH). To investigate transcriptional changes of these classes of enzymes, it was necessary to develop a battery of cDNA probes for use in Northern blot analysis of RNA extracted from treated animals (Table 2).
# (§2) Whether the selenaproline compounds had the ability to up-regulate the transcription of Phase II and/or other “protective” enzymes was first evaluated following a single dose of each (Table 3). […] The experiment was repeated but with a 7-day treatment regimen (Table 4), the time period for which the compounds were given in the diet before NNK administration in the tumor experiment reported in Table 1. […] With multiple doses, SCA induced Ugt1a9, an mRNA that was not changed with a single dose. […] The elevation in the Gst-mu transcript was unique to multiple OSCA treatment. The elevation of the GST-alpha mRNA was also seen with SCA treatment. Microsomal epoxide hydrolase mRNA was robustly elevated by multiple doses of all three selenaproline compounds, an effect not anticipated from the single dose experiment where not even minor changes were apparent.
# Ugt1a6 = experiment: Northern blot of liver Ugt1a6 mRNA after ip dosing; format: in vivo, mice; settings: mean ± SEM
# Protocol: as §1, §2
# Ugt1a1 = experiment: Northern blot of liver Ugt1a1 mRNA after ip dosing; format: in vivo, mice; settings: mean ± SEM
# Protocol: as §1, §2
# GPx [1] = experiment: Northern blot of liver GPx mRNA after ip dosing; format: in vivo, mice; settings: mean ± SEM
# Protocol: as §1, §2
# [2] = sALT (hepatotoxicity) after 7 daily ip doses; format: in vivo; design: unit not given here; settings: 7 daily doses ip, 1.25 mg Se/kg, with corn oil; untreated mice 37.5 ± 2.9
# Source text: Many of the mRNA changes seen with a single dose were not sustained with multiple dosing. Changes in Ugt transcripts after multiple dosing were noticeably absent. Unique to BSCA among the four new compounds investigated was its ability to induce Gst-alpha, Gst-mu and GPx mRNAs. For the Gst-alpha transcripts, which appeared elevated by corn oil, the BSCA increase was much greater than the vehicle alone (8-fold versus 2-fold) and was statistically significant (p<0.05). BSCA shared with PhOHSCA the ability to elevate mEH mRNA.
# [3] = Stability in aqueous solution; format: physicochemical; settings: compared with MSCA; previous studies
# Source text: Accordingly, additional compounds were synthesized with a range of partition coefficients (Table 6) and evaluated their ability to alter gene transcription following single (Table 7) and multiple (Table 8) doses. The new 2-(R,S)-substituted-4(R)-carboxylic acid derivatives involving 2-butyl, 2-cyclohexyl, 2-phenyl and 2-(2-hydroxyphenyl) were synthesized utilizing the reaction of selenocysteine and the appropriate carboxaldehyde. They were purified by crystallization from ethanol/acetonitrile mixtures and their molecular structures were verified by spectral methods of analysis (′HNMR, ^13CNMR, ESIMs and HRMS).
# Gst-alpha = experiment: Northern blot of liver Gst-alpha mRNA after ip dosing; format: in vivo, mice; settings: 1 dose ip, liver RNA 24 hours after dosing, mean ± SEM
# Protocol: as §1, §2
# mEH = experiment: Northern blot of liver mEH mRNA after ip dosing; format: in vivo, mice; settings: mean ± SEM
# Protocol: as §1, §2
# Gst-mu = experiment: Northern blot of liver Gst-mu mRNA after ip dosing; format: in vivo, mice; settings: mean ± SEM
# Protocol: as §1, §2
# [4] = Body weight gain and liver weight in four-month feeding study; format: in vivo; settings: mice, diet 15 ppm Se, NNK
# Protocol: (§3) Where indicated, mice (16 g) were given diets fortified with SCA, MSCA or OSCA (15 ppm Se) for 1 week prior to NNK (10 umol, ip). Two other groups received the unmodified AIN-76A diet, with and without NNK administration. All groups were maintained on their pretreatment diet until the animals were sacrificed after 16 weeks. Liver GPx activity is expressed as μmol NADPH oxidized [in regenerating GSH]/min/mg 10,000 g×20 min supernatant protein; RBC activity as μmol/min/mg RBC lysate hemoglobin.
# NNK lung tumor = NNK lung tumor four-month feeding study; format: in vivo; settings: mice, diet 15 ppm Se from 1 week prior to NNK (10 umol, ip), sacrificed after 16 weeks
# Protocol: (§4) Three novel selenazolidines, 2-methyl-, 2-oxo- and 2-unsubstituted (i.e., selenaproline) selenazolidine-4[R]-carboxylic acid (MSCA, OSCA, and SCA respectively) that had been synthesized as prodrugs of selenocysteine were evaluated for their potential to act as cancer chemopreventive agents. [Se] and GPx activity were evaluated.
# as §3
# GPx [5] = experiment: Hepatic and RBC (tButylOOH) GPx activity in four-month feeding study; format: in vivo; settings: mice, diet 15 ppm Se, NNK
# Protocol: as §4, §3
# GPx [6] = experiment: Hepatic cytosolic GPx (H202) activity after 7 daily ip doses; format: in vivo, mice; settings: 7 daily doses ip, hepatic cytosol; naive 894 ± 36
# GST = experiment: Hepatic cytosolic GST (CDNB) activity after 7 daily ip doses; format: in vivo, mice; settings: 7 daily doses ip, hepatic cytosol; naive 5248 ± 503
# [7] = 1 dose ip, 1.25 mg Se/kg in corn oil, liver RNA 24 hours after dosing
# [8] = 7 daily doses ip, 1.25 mg Se/kg, with corn oil, liver RNA 24 hours after the last dose
# [9] = 1 dose ip, 1.25 mg Se/kg, liver RNA 24 hours after dosing
# [10] = 7 daily doses ip, 1.25 mg Se/kg, liver RNA 24 hours after the last dose
structure (smiles),measurement,setting,value
"CCCCC1NC(C(=O)O)C[Se]1 (stereo not drawn) [BSCA, 2-n-butyl-SCA]",Ugt1a9 mRNA,"Ugt1a9; 7 daily doses ip, with corn oil, liver RNA 24 hours after the last dose",1.69 ± 0.35 fold change from naive
same,Ugt1a6 mRNA,Ugt1a6; [7],1.95 ± 0.21 fold change from naive
same,Ugt1a6 mRNA,Ugt1a6; [8],1.84 ± 0.54 fold change from naive
same,Ugt1a1 mRNA,Ugt1a1; [7],0.83 ± 0.28 fold change from naive
same,Ugt1a1 mRNA,Ugt1a1; [8],1.21 ± 0.26 fold change from naive
same,GPx mRNA,GPx [1]; [7],1.58 ± 0.46 fold change from naive
same,sALT,[2],37.1 ± 2.7
same,Stability in aqueous solution,[3],much more stable in aqueous solution than MSCA
same,Gst-alpha mRNA,Gst-alpha; 1.25 mg Se/kg in corn oil,1.39 ± 0.05 fold change from naive
same,mEH mRNA,mEH; [7],0.69 ± 0.19 fold change from naive
same,Gst-mu mRNA,Gst-mu; [7],1.58 ± 0.46 fold change from naive
"O=C(O)C1C[Se]CN1 (stereo not drawn) [SCA, selenazolidine-4-carboxylic acid]",Ugt1a9 mRNA,"Ugt1a9; 1 dose ip, liver RNA 24 hours after dosing",1.35 ± 0.50 fold change from naive
same,Body wt gain (%),[4],51.1%
same,Liver weight,[4],1.18 ± 0.02 g
same,Ugt1a6 mRNA,Ugt1a6; [9],1.01 ± 0.29 fold change from naive
same,Ugt1a6 mRNA,Ugt1a6; [10],1.01 ± 0.07 fold change from naive
same,Ugt1a1 mRNA,Ugt1a1; [9],1.03 ± 0.18 fold change from naive
same,Ugt1a1 mRNA,Ugt1a1; [10],2.25 ± 0.25 fold change from naive
same,NNK Tumors,NNK lung tumor,6.7 ± 0.8
same,GPx (1.5 kb) mRNA,GPx [1]; [9],1.12 ± 0.04 fold change from naive
same,GPx mRNA,GPx [1]; [10],1.55 ± 0.76 fold change from naive
same,RBC (tButylOOH) GPx,GPx [5]; RBC,253 ± 33 μmol/min/mg RBC lysate hemoglobin
same,Hepatic (tButylOOH) GPx,GPx [5]; liver,"409 ± 46 μmol NADPH oxidized/min/mg 10,"
same,GPx (H202) activity,GPx [6],"862 ± 81 nmol/mg cytosol (100,000 g supernatant) protein/min"
same,Gst-alpha mRNA,Gst-alpha; 1.25 mg Se/kg,1.15 ± 0.28 fold change from naive
same,mEH mRNA,mEH; [9],1.36 ± 0.40 fold change from naive
same,mEH mRNA,mEH; [10],3.25 ± 1.80 fold change from naive
same,Gst-mu mRNA,Gst-mu; [9],1.28 ± 0.09 fold change from naive
same,Gst-mu mRNA,Gst-mu; [10],0.58 ± 0.11 fold change from naive
same,GST (CDNB) activity,GST,"6576 ± 595 nmol/mg cytosol (100,000 g supernatant) protein/min"
